# In patent US20250326732A1 (Pretzel Therapeutics, Inc., priority 2021, published 2025):
# pIC50: −log10 of the molar value.
# Biological target: POLRMT (Homo sapiens (Human), UniProt O00411)
# Assay: homogeneous TR-FRET assay of mitochondrial transcription (inhibition of POLRMT)
# Assay type: biochemical
# Details: 7.5 nM POLRMT, 15 nM TFB2M, 30 nM TFAM, 0.5 nM DNA template, 500 μM NTPs, 37° C. for 60 minutes
# Outline: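 POLRMT transcription from linearized pUC-LSP DNA template; RNA product detected by hybridization of ATTO647 acceptor (1 nM) and biotinylated donor (3 nM) probes plus Europium-streptavidin. Reaction stopped with EDTA/700 mM NaCl buffer, pH 7.5.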
# Chain of POLRMT (O00411 42-1230): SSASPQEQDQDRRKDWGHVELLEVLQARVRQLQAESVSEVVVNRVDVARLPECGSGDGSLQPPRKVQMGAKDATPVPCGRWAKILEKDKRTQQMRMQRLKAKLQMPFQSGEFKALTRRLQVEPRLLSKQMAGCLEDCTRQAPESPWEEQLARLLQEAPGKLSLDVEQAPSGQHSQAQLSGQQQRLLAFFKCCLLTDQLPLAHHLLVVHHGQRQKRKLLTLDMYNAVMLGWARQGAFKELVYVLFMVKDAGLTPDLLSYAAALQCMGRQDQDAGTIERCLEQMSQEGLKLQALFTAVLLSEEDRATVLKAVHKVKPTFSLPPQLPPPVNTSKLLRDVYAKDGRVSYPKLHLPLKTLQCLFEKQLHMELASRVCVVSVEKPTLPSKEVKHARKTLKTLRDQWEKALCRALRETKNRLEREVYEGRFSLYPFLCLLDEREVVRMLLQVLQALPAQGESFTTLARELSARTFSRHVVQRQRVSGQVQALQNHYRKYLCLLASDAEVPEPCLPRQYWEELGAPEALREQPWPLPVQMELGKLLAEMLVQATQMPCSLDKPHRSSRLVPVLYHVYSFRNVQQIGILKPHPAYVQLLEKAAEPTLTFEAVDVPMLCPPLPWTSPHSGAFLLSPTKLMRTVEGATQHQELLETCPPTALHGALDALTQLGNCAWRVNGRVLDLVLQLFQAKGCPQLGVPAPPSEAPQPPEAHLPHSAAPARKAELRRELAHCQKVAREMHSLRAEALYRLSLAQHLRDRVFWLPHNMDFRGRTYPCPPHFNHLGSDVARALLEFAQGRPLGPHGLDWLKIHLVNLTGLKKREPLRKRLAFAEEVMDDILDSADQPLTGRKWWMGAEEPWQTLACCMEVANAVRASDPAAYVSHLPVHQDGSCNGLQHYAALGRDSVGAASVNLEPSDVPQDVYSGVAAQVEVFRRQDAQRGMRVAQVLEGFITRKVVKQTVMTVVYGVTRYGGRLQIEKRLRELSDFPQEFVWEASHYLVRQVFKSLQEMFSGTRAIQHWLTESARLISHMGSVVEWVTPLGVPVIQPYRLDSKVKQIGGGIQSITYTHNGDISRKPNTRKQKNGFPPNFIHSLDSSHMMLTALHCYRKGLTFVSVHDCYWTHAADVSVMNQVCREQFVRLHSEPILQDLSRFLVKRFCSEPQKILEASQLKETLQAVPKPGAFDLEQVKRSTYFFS
row,pIC50,SMILES
1,6.70,"CCNC(=O)[C@@H](C)N(C)c1ccc2c(-c3ccc(F)cc3Cl)cc(=O)oc2c1 [Example 56, (R)-2-((4-(2-chloro-4-fluorophenyl)-2-oxo-2H-chromen-7-yl)(methyl)amino)-N-ethylpropanamide]"
2,6.00,"CN(CCC(=O)O)c1ccc2c(-c3ccccc3Cl)cc(=O)oc2c1 [Example 132, 3-((4-(2-chlorophenyl)-2-oxo-2H-chromen-7-yl)(methyl)amino)propanoic acid]"
3,5.70,"CC(=O)N(C)C(C)c1ccc2c(-c3ccccc3C)cc(=O)oc2c1 (stereo not shown) [Example 77, N-methyl-N-(1-(2-oxo-4-(o-tolyl)-2H-chromen-7-yl)ethyl)acetamide]"
4,7.00,"Cc1ccccc1-c1cc(=O)oc2cc(N(C)CC(=O)NC3CCOCC3)ccc12 [Example 139, 2-(methyl(2-oxo-4-(o-tolyl)-2H-chromen-7-yl)amino)-N-(tetrahydro-2H-pyran-4-yl)acetamide]"
5,7.30,"C[C@H](C(=O)N(C)C)N(C)c1ccc2c(-c3ccc(F)cc3Cl)cc(=O)oc2c1 [Example 46, (R)-2-((4-(2-chloro-4-fluorophenyl)-2-oxo-2H-chromen-7-yl)(methyl)amino)-N,N-dimethylpropanamide]"
6,5.70,"COC(=O)C(C)Cc1ccc2c(-c3ccc(F)cc3Cl)cc(=O)oc2c1 (stereo not shown) [Example 15, methyl 3-(4-(2-chloro-4-fluorophenyl)-2-oxo-2H-chromen-7-yl)-2-methylpropanoate]"
7,4.77,"COCC(Cc1ccc2c(-c3ccccc3C)cc(=O)oc2c1)C(N)=O (single isomer, unassigned) [Example 207, 3-methoxy-2-((2-oxo-4-(o-tolyl)-2H-chromen-7-yl)methyl)propanamide]"
8,4.19,"Cc1ccccc1-c1cc(=O)oc2cc(C(=O)N(C)C3CCCOC3)ccc12 (stereo not shown) [Example 117, N-methyl-2-oxo-N-(tetrahydro-2H-pyran-3-yl)-4-(o-tolyl)-2H-chromene-7-carboxamide]"
9,7.40,"Cc1ccccc1-c1cc(=O)oc2cc(N(C)CC(=O)OC(C)(C)C)ccc12 [Example 70, tert-butyl N-methyl-N-(2-oxo-4-(o-tolyl)-2H-chromen-7-yl)glycinate]"
10,5.15,"Cc1ccccc1-c1cc(=O)oc2cc([C@@H]3C[C@H]3C(=O)N(C)C)ccc12 (relative stereo) [Example 236, (trans)-N,N-dimethyl-2-(2-oxo-4-(o-tolyl)-2H-chromen-7-yl)cyclopropane-1-carboxamide]"
11,6.22,"Cc1ccccc1-c1cc(=O)oc2cc(CC(C)C(N)=O)ccc12 (single isomer, unassigned) [Example 68, 2-methyl-3-(2-oxo-4-(o-tolyl)-2H-chromen-7-yl)propanamide]"
12,5.70,"CCOC(=O)/C(C)=C/c1ccc2c(-c3ccccc3C)cc(=O)oc2c1 [Example 50, ethyl (E)-2-methyl-3-(2-oxo-4-(o-tolyl)-2H-chromen-7-yl)acrylate]"
13,< 4.00,"Cc1cc(O[C@H](C)C(=O)N2CCCCC2)c2c(-c3ccc(F)cc3)cc(=O)oc2c1 [Example 161, (R)-4-(4-fluorophenyl)-7-methyl-5-((1-oxo-1-(piperidin-1-yl)propan-2-yl)oxy)-2H-chromen-2-one]"
14,6.10,"Cc1ccccc1-c1cc(=O)oc2cc(NC(C)C(N)=O)ccc12 (single isomer, unassigned) [Example 190, 2-((2-oxo-4-(o-tolyl)-2H-chromen-7-yl)amino)propanamide]"
15,6.15,"Cc1ccccc1-c1cc(=O)oc2cc(NCc3ccon3)ccc12 [Example 185, 7-((isoxazol-3-ylmethyl)amino)-4-(o-tolyl)-2H-chromen-2-one]"
16,5.05,"CNC(=O)C1CC1c1ccc2c(-c3ccccc3C)cc(=O)oc2c1 (stereo not drawn) [Example 135, chiral-N-methyl-2-(2-oxo-4-(o-tolyl)-2H-chromen-7-yl)cyclopropane-1-carboxamide]"
